# Measured values taken from patent US9486462B2, “Formulations of aminoglycosides and fosfomycin in a combination having improved chemical properties” (CARDEAS PHARMA CORPORATION, priority 2013, dated 2016).
# Legend:
# [1] = commercially available; cited from earlier work
# [2] = pH of amikacin starting materials; format: physicochemical; conditions: amikacin base, before neutralization
# [3] = cited from earlier work
# pseudomonas = conditions: approximately 20 mg delivered to the lung, co-infected patients; cited from earlier work
# Staphylococcus aureus [4] = conditions: cited from earlier work
# [5] = in vivo
# Description: (§1) In clinical use, concentration of the aminoglycoside and fosfomycin are delivered to yield a concentration in the lungs that is MIC90 for the target organism. For amikacin, about […] of amikacin chloride and about […] of fosfomycin disodium are delivered to the lung (50 mg amikacin chloride and 20 mg fosfomycin in solution) using a nebulizer with an expected 15% delivery efficiency.
# Staphylococcus aureus [6] = test: Predicted lung concentration relative to MIC90, Staphylococcus aureus; format: in vivo
# Description: as §1
# [7] = test system: highly resistant Gram-negative organisms; test: Predicted lung concentration relative to MIC90, Gram-negative organisms; format: in vivo; conditions: most highly resistant Gram-negative organisms
# Description: as §1
compound,measurement,setting,value
NCC[C@H](O)C(=O)N[C@@H]1C[C@H](N)[C@@H](O[C@H]2O[C@H](CN)[C@@H](O)[C@H](O)[C@H]2O)[C@H](O)[C@H]1O[C@H]1O[C@H](CO)[C@@H](O)[C@H](N)[C@H]1O.O=S(=O)(O)O.O=S(=O)(O)O [amikacin sulfate],starting pH,[1],3.5-5.5
NCC[C@H](O)C(=O)N[C@@H]1C[C@H](N)[C@@H](O[C@H]2O[C@H](CN)[C@@H](O)[C@H](O)[C@H]2O)[C@H](O)[C@H]1O[C@H]1O[C@H](CO)[C@@H](O)[C@H](N)[C@H]1O [amikacin],pH,[2],approximately 11
NCC[C@H](O)C(=O)N[C@@H]1C[C@H](N)[C@@H](O[C@H]2O[C@H](CN)CC[C@H]2N)[C@H](O)[C@H]1O[C@H]1O[C@H](CO)[C@@H](O)[C@H](N)[C@H]1O [arbekacin],pKa,[3],10.2
C[C@@H]1O[C@@H]1P(=O)(O)O [fosfomycin],bacterial density,pseudomonas,Decreased bacterial density
same,bacterial density,"Staphylococcus aureus [4]; approximately 20 mg delivered to the lung, co-infected patients",Decreased bacterial density
same,killing of staphylococcus,Staphylococcus aureus [4]; estimated 40 mg delivered dose versus estimated 20 mg dose,more efficacious
same,predicted concentration delivered to the lungs,[5],about 5400 ug/mL
same,"predicted peak concentration, times the MIC90",Staphylococcus aureus [6],greater than 25 times
amikacin chloride,predicted concentration delivered to the lungs,[5],"about 13,500 ug/mL"
same,"predicted lung concentration, times the MIC90",[7],greater than 25 times
gentamycin,pKa,[3],8.2
